Data: PMC7814043, “Pan RAS-binding compounds selected from a chemical library by inhibiting interaction between RAS and a reduced affinity intracellular antibody” (Scientific Reports, 2021)

Legend:
[1] = biological target: T1, non-mutated anti-RAS scFv / HRAS^G12V interaction (Homo sapiens, UniProt P01112, G12V); experiment: Alpha assay of non-mutated anti-RAS scFv with HRAS^G12V (identical protocol, unpublished data); assay type: biochemical
T1 construct: made in house; host or cells: E. coli C41(DE3)
T1 sequence (P01112 whole entry G12V): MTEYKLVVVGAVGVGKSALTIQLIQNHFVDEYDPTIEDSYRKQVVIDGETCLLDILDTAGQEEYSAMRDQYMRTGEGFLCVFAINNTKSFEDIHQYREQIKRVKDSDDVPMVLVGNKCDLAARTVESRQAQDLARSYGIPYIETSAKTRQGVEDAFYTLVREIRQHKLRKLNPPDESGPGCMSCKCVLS
Source text: We have used the RAS protein as a target for this method as this was previously regarded as undruggable[9]–[11]. We provide further evidence of RAS druggability and that antibody binding sites can be employed to select small molecules for drug discovery as starting chemical matter for medicinal chemistry drug development campaigns. Compound A (Fig. 3A) is a heterocycle that would require crystal soaking to facilitate structure-based drug design to place this on a formal drug development programme. […] Further, the low Kd in SPR (Fig. 4), lack of inhibitory effect in Alpha controls (Fig. 3) argue against chemical reactivity as the reason for the Alpha assay inhibition. […] The low binding strength of these initial library hits, in turn resulting from the small size of the chemical library used, would preclude meaningful cell-assays at this stage.

[2] = biological target: T2, HRAS^G12V-GTP / scFv RASdm interaction (Homo sapiens, UniProt P01112, G12V); experiment: AlphaScreen of interaction between GST-HRAS^G12V-GTPγS and His-tagged scFv RASdm; assay type: biochemical; details: dose-response Alpha assay
T2 construct: made in house; host or cells: E. coli C41(DE3)
T2 sequence (P01112 whole entry G12V): as above
Source text: An AlphaScreen assay was established with GST-HRAS^G12V-GTP bound to GST-beads and HIS-tagged scFv RASdm bound to nickel-beads. The Alpha assay comprised interaction of anti-RAS and HRAS proteins and signal from the acceptor beads generated after excitation of the donor nickel-beads (depicted in Supplementary Fig. 3A). […] The interactions were optimized for protein concentrations linked to the donor and acceptor beads (Supplementary Fig. 3C,D). The interaction of HRAS^G12V-GTP with the dematured anti-RAS scFv was robust (Supplementary Fig. 3D) yielding Z factors of 0.74–0.85 being considered suitable for high throughput screen. […]
The AlphaScreen assay (Perkin Elmer) was performed in a 8 μl final volume in 1536-well white microtiter plates (Greiner). […] Exposure of the reaction to direct light was avoided and the emission of light from the acceptor beads was measured in the EnVision plate reader (Perkin Elmer) and analyzed using the EnVision manager software. […]
Panel A: AlphaLISA glutathione (GSH) acceptor beads were used to capture GST-HRAS loaded with GTPγS (Ag). […] Following incubation, nickel (Ni) chelate donor AlphaLISA beads were added and the chemiluminescence signal detected on an PE Envision plate reader. […]

HRAS-GPPNHP = HRAS-GPPNHP (Homo sapiens, UniProt P01112); experiment: SPR of compound on biotinylated RAS isoform (streptavidin chip); assay type: binding
Chain of HRAS-GPPNHP (P01112 1-166): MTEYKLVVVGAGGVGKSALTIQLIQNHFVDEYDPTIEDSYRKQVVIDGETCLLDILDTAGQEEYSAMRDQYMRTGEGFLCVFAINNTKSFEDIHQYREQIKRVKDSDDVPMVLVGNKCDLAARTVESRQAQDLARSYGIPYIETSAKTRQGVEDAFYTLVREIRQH

[3] = system: KRAS, HRAS and NRAS-GTP proteins; experiment: SPR over the three RAS isoforms (average / overall)
Description: Accordingly, we used SPR to determine direct RAS-binding and because the anti-RAS intracellular antibody interacts with the three isoforms of activated RAS[3], we assessed if the compounds also show a pan-RAS binding.
The protein extracts were loaded with GPPNHP (a non-hydrolysable GTP analogue) as described[19] and biotinylated by incubation with BirA overnight at 4 °C. […] SPR experiments were performed using BIAcore T100 (GE Healthcare). […] The chip was prepared with 3 × 30 s injections of 1 M NaCl/50 mM NaOH at 10 µL/min flow rate, before biotinylated RAS proteins were injected at 25 µg/mL with 10 µL/min flow rate until 4000–5000 RU protein was captured.

NRAS-GPPNHP = NRAS-GPPNHP (Homo sapiens, UniProt P01111); experiment: SPR of compound on biotinylated RAS isoform (streptavidin chip); assay type: binding
Chain of NRAS-GPPNHP (P01111 1-166): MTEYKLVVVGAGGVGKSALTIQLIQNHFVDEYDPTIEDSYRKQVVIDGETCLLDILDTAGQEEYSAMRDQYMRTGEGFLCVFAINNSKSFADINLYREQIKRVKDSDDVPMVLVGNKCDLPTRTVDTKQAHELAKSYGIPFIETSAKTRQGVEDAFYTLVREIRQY

KRAS^G12V-GPPNHP = KRAS^G12V-GPPNHP (Homo sapiens, UniProt P01116, G12V); experiment: as above; assay type: binding
dopamine D1 receptor = details: cited from earlier work

Structure (SMILES) | inhibition of interaction between non-mutated anti-RAS scFv and HRAS^G12V [1] | IC50 [2] | Rmax (HRAS-GPPNHP; Figure 4E) | Kd (HRAS-GPPNHP; HRAS) | response in SPR analysis ([3]; KRAS, HRAS and NRAS proteins) | Kd ([3]; read-out: average Kd, average over KRAS, HRAS and NRAS) | Rmax (NRAS-GPPNHP; Figure 4F) | Kd (NRAS-GPPNHP; NRAS) | Rmax (KRAS^G12V-GPPNHP; Figure 4D) | Kd (KRAS^G12V-GPPNHP; KRAS) | dopamine D1 receptor activity (dopamine D1 receptor)
CCCn1c(=O)c2[nH]c(C3CCCC3)nc2n(CCCOC(=O)c2ccc(S(=O)(=O)F)cc2)c1=O [Compound A, 8-Cyclopentyl-3-(3-((4-(fluorosulfonyl)benzoyl)oxy)propyl)-1-propylxanthine] | no inhibition | 2 µM | – | – | – | – | – | – | – | – | –
CN1Cc2ccccc2C2c3cccc4[nH]cc(c34)CC21 (stereo not drawn) [compound B, 4,6,6a,7,8,12b-hexahydro-7-methylindolo(4,3-ab)-phenanthridine] | – | 6 µM | 3.5 RU | 30 µM | low response | 37 µM | 6.8 RU | 35 µM | 6.7 RU | 47 µM | weak dopamine D1 receptor agonist
